Literature values in patent publication US20260345619A1 (Principia Biopharma Inc., priority 2023, published 2026).
Like-named read-outs stand apart in the source and are kept apart here.

Key:
[1] = tested on: 251 kinases sharing a common cysteine in their active site; details: 1 μM; panel of 251 kinases; cited from earlier work
[2] = cited from earlier work

In the case of C=CC(=O)N1CCC[C@@H](n2nc(-c3ccc(Oc4ccccc4)cc3)c3c(N)ncnc32)C1 [ibrutinib, reference compound], the “number of kinases inhibited (>90% inhibition)” value [1] is listed as 21 kinases.

For benralizumab: anti-IL5 receptor, the efficacy ([2]; severe asthma, eosinophilic phenotype) is given as “have shown efficacy”.

For “omalizumab: anti-immunoglobulin E (IgE) agent”, the black box warning ([2]; in vivo) is given as “black box warning of potential for anaphylaxis” and the efficacy ([2]; severe, corticosteroid-refractory allergy-induced asthma) is given as “has shown efficacy”.
